Consider six compounds from patent publication US20050042308A1, “Pharmaceutical composition having cholagogic and litholytic effect and its preparation method” (priority 2001, published 2005).

Marks after values point to notes of the source that are not given here.

For data set [1], the system named is gallbladder muscle stripe in vitro. Kind of data set: Gallbladder smooth muscle contraction caused by acetylcholine. Details: species or system guinea pig. Here is the method: Krebs liquid culture plate, anatomize longitudinally to get 2 pieces of muscle stripe of gallbladder with 10 mm length and […] width. Place the muscle stripe into 37° C. constant temperature Mcrruary bath with Kmbs solution (20 ml), the lower end is fixed on the hook at the bottom of the bath, the upper end is connected to the energy transducer, adjust the oxygen flow gas bubble to tiny and uniform flow, the energy transducer is connected to physiological recorder with prepositive amplifier. Every time after adding test solution observes for more than 3 minutes. When reaching the biggest effect, timely rinse the bath with flushing solution three times with 15 minutes break. After the contraction curve becomes balanced, to make another experiment. […] Krebs solution should be prepared with double-distilled water). After adding acetylcholine, record the contraction curve of gallbladder muscle. From the contraction curve, we can see the amplitude of contraction curve rise. After contraction curve reaches peak-balance, add different concentration LDRS solution. After adding drug solution, the amplitude of contraction curve of gallbladder muscle stripe descends. Record the altitude of amplitude of every phase. The statistic method is below: before drug administration, from the upper and lower limit point of the amplitude contraction curve of gallbladder muscle stripe to respectively line a straight line parallel to the transverse coordinate axis, measure the altitude between the two parallel line as the normal amplitude (The lower line before drug administration is used as basal line). After contraction curve is stable, adding different concentration Ach solution, we can see the amplitude of contraction curve of gallbladder muscle stripe rise, through the peak of amplitude to line a straight line parallel to basal line and measure the altitude between the two parallel line as amplitude of Ach. After curve is stable, add different concentration LDRS stock solution and through the lowest point of amplitude to line parallel to basal line, measure the altitude between the basal line and the lowest line.

In the next data set the test system is fever of the rat. Kind of data set: Fever of the rat caused by 2, 4-dinitrophenol. It counts as in vivo. Conditions: Aminopyrine 80(mg), Eulektrol 0.15 ml/kg. On the procedure: Get […] healthy male rats with 1 80˜220 g body weight, randomly separate them into 6 groups according to the body weight with 8 rats in each group. The rats in the 1st group are forced to take 0.5% CMC 10 ml/kg. The rats in the 2nd group are forced to take aminopyrine […]. The rats in 3rd group are forced to take Eulektrol 0.15 ml /kg. The rats in the 4th, 5th, 6th are respectively forced to take LDRS 0.077 ml, 0.154 ml, […]. 15 minutes later after drug administration SC 25 mg/ml 2,4-dinitrophenol in the middle of shoulder and back, then measure the anal temperature in 0 hour before drug administration, 0.25 hours, 0.5 hours, 1 hours, 2 hours, 4 hours after drug administration.

Another data set relates to cholelithiasis patients. Conditions: cited from earlier work.
In data set [2] the test system is bile secretion of the rat. The data set can be described thus: Cholagogue experiment in rat (bile efflux coefficient). It counts as in vivo. Conditions: Eulektrol 0.150 ml/kg; for bile efflux coefficient before 1 hour: before drug administration, Cholanic acid 100 mg (pure substance), Dehydrogenized Cholanic acid 100 mg (pure substance) groups; for (%) increase of bile efflux coefficient compared with control group, after 1 hour / (%) increase of bile efflux coefficient compared with control group, after 2 hours / (%) increase of bile efflux coefficient compared with control group, after 3 hours / (%) increase of bile efflux coefficient compared with control group, after 4 hours / bile efflux coefficient after 1 hour / bile efflux coefficient after 2 hours / bile efflux coefficient after 3 hours / bile efflux coefficient after 4 hours: into duodenum, Cholanic acid 100 mg, Dehydrogenized Cholanic acid 100 mg (pure substance). Here is the method: After grouping, the experimental rats are fasting for 16 hours before experiment; anesthetize these rats through ip ethyl carbamate (also named Urethane). After anesthesia, enlace the four limbs; incise the abdomen to find the pylorus of the stomach. Along the pylorus, find common bile duct. Use little forceps to deliminate the surface envelope and reveal the common bile duct, ligate the lower extremity, carefully shear a little ventage, insert plastic duct with external diameter 1 mm into the common bile duct proximal to the liver to drain the bile. After bile drainage volume is stable, record the bile collection volume every 0.5 hour, for two times.

The subject of a further data set is bilirubin in bile. The data set can be described thus: The measure of bilirubin of bile. Type of data set: in vivo. Conditions: cholanic acid 0.1(g), Eulektrol 0.15(g), Dehydrogenized cholanic acid 0.1(g).
Data set [3] has as its system auricular swollen of mouse caused by dimethylbenzene. Kind of data set: Auricular inflammation of mouse caused by dimethylbenzene. It counts as in vivo. The following applies: Eulektrol 0.15 ml/kg; Indothemacin 30 (mg).
The test system of a further data set is granuloma of rat. The data set can be described thus: Granuloma of rat caused by agar. Type of data set: in vivo. Conditions: Prednisone 30 (mg). From the text:
Thereinto, the inhibition effect of moderates high dose group is compared with control group, P<0.05, P<0.01 respectively, showing significant inhibition effect.

The subject of data set [4] is ankle swollen of rat caused by carragheen. The data set can be described thus: Ankle swollen of the rat caused by carragheen. Conditions: Eulektrol 0.15 ml/kg, Prednisone acetate 30(mg). It counts as in vivo.
The mark [5] stands for this setting: series with 8 muscle stripes, Ach 10^−4 ml alone, or LDRS (printed 10^−2 ml) added after Ach.
Setting [6] is: series with 13 muscle stripes, Ach 10^−4 ml alone, or LDRS 10^−2 ml added after Ach.

Turning to `CC(=O)OCC[N+](C)(C)C` [Ach, acetylcholine], the gallbladder contraction amplitude was found to be 32.73 ± 6.90 mm in data set [1] (setting [5]) and 35.2 ± 6.84 mm in data set [1] (setting [6]). The “variation rate of amplitude (normal value = 100.0)” value is 654.6% in data set [1] (setting [5]) and 541.5% in data set [1] (setting [6]).

Regarding `Cc1c(N(C)C)c(=O)n(-c2ccccc2)n1C` [Aminopyrine, aminopyrine], the “the body temperature variation after drug administration” value with fever of the rat (0.25 h) was −0.21 ± 0.52 °C; with fever of the rat (0.5 h) it was −0.05 ± 0.81 °C; with fever of the rat (1 h), 0.03 ± 0.79 °C; in the data set with fever of the rat (2 h), 0.49 ± 0.47 °C; in the data set on fever of the rat (4 h) it was 0.30 ± 0.67 °C.

On to `C[C@H](CCC(=O)O)[C@H]1CC[C@H]2[C@@H]3CCC4CCCC[C@]4(C)[C@H]3CC[C@]12C` (some centres unmarked) [Cholanic acid, cholanic acid], for which, in the data set on cholelithiasis patients (clinical case report), the “efficacy of the therapeutics (reducing the gallstone size, dissolving the gallstone or decreasing the gallstone)” value is reported as “about 50%”. For the same compound, the “patients with SGOT increase” value in the data set on cholelithiasis patients (treatment of the cholelithiasis) was 20%. Further, in data set [2], the “bile efflux coefficient before 1 hour” value is on record as 0.116 ± 0.04 ml(bile)/100 g · bw; the “(%) increase of bile efflux coefficient compared with control group, after 1 hour” value is on record as 6.4%; the “(%) increase of bile efflux coefficient compared with control group, after 2 hours” value turned out to be 26.8%; the “(%) increase of bile efflux coefficient compared with control group, after 3 hours” value was found to be 123.6%. For the same compound, in data set [2], the “(%) increase of bile efflux coefficient compared with control group, after 4 hours” value was determined as 45.1%; the “bile efflux coefficient after 1 hour” value was 0.166 ± 0.04 ml(bile)/100 g · bw; the “bile efflux coefficient after 2 hours” value is 0.189 ± 0.05 ml(bile)/100 g · bw; the “bile efflux coefficient after 3 hours” value is listed as 0.246 ± 0.04 ml(bile)/100 g · bw. In addition, in data set [2], the “bile efflux coefficient after 4 hours” value is on record as 0.164 ± 0.04 ml(bile)/100 g · bw. Also, in the data set with bilirubin in bile (1 h), the D-bil in bile stood at 67.3 ± 25.4 mmol/L, the F-bil in bile was determined as 26.7 ± 20.1 mmol/L and the T-BIL in bile stood at 94.1 ± 37.9 mmol/L. In the data set with bilirubin in bile (2 h), this compound registered a D-bil in bile of 60.8 ± 31.9 mmol/L, a F-bil in bile of 16.9 ± 12.8 mmol/L and a T-BIL in bile of 77.7 ± 38.9 mmol/L. In addition, in the data set with bilirubin in bile (3 h), the D-bil in bile is listed as 55.3 ± 18.2 mmol/L, the F-bil in bile is on record as 27.2 ± 13.9 mmol/L and the T-BIL in bile came out at 82.5 ± 29.0 mmol/L. Besides, in the data set with bilirubin in bile (4 h), the D-bil in bile is on record as 53.0 ± 31.6 mmol/L, the F-bil in bile was found to be 28.3 ± 10.6 mmol/L and the T-BIL in bile came out at 81.3 ± 29.8 mmol/L.

Regarding `C[C@H](CCC(=O)O)[C@H]1CC[C@H]2[C@@H]3C(=O)C[C@@H]4CC(=O)CC[C@]4(C)[C@H]3CC(=O)[C@]12C` [Dehydrogenized Cholanic acid, dehydrogenized cholanic acid], in data set [2], the “bile efflux coefficient before 1 hour” value is on record as 0.116 ± 0.04 ml(bile)/100 g · bw; the “(%) increase of bile efflux coefficient compared with control group, after 1 hour” value is listed as 5.8%; the “(%) increase of bile efflux coefficient compared with control group, after 2 hours” value stood at 57.0%; the “(%) increase of bile efflux coefficient compared with control group, after 3 hours” value amounted to 102.7%. In data set [2], the “(%) increase of bile efflux coefficient compared with control group, after 4 hours” value worked out at 85.8%; the “bile efflux coefficient after 1 hour” value was 0.165 ± 0.08 ml(bile)/100 g · bw; the “bile efflux coefficient after 2 hours” value is listed as 0.234 ± 0.07 ml(bile)/100 g · bw; the “bile efflux coefficient after 3 hours” value was 0.223 ± 0.05 ml(bile)/100 g · bw. For the same compound, in data set [2], the “bile efflux coefficient after 4 hours” value is recorded as 0.210 ± 0.07 ml(bile)/100 g · bw. For the same compound, in the data set on bilirubin in bile (1 h), the D-bil in bile was determined as 57.8 ± 12.8 mmol/L, the F-bil in bile turned out to be 15.4 ± 4.9 mmol/L and the T-BIL in bile is recorded as 73.1 ± 14.1 mmol/L. In the data set on bilirubin in bile (2 h), the D-bil in bile amounted to 43.4 ± 15.5 mmol/L, the F-bil in bile is given as 10.9 ± 11.2 mmol/L and the T-BIL in bile was 54.3 ± 23.9 mmol/L. Also, in the data set on bilirubin in bile (3 h), the D-bil in bile was 39.9 ± 10.2 mmol/L, the F-bil in bile is 8.16 ± 3.1 mmol/L and the T-BIL in bile is recorded as 48.1 ± 14.8 mmol/L. Besides, in the data set on bilirubin in bile (4 h), the D-bil in bile is 45.7 ± 16.4 mmol/L, the F-bil in bile came out at 13.6 ± 5.69 mmol/L and the T-BIL in bile is recorded as 59.3 ± 19.7 mmol/L.

Regarding `COc1ccc2c(c1)c(CC(=O)O)c(C)n2C(=O)c1ccc(Cl)cc1` [Indothemacin, indomethacin], in data set [3], the “inhibition rate of auricular swelling” value stood at 74.0%; the “the auricular weight difference between left and right” value is on record as 3.98 ± 2.5 mg/100 g.

`CC(=O)OCC(=O)[C@@]1(O)CC[C@H]2[C@@H]3CCC4=CC(=O)C=C[C@]4(C)[C@H]3C(=O)C[C@@]21C` [Prednisone acetate] displayed an average granuloma coefficient in the data set with granuloma of rat of 0.20 ± 0.08. Besides, in the data set on granuloma of rat, the “inhibition rate of granuloma coefficient” value is listed as 69.2** %. The size of ankle in data set [4] (2 h after drug) is reported as 2.34 ± 0.17 cm; in data set [4] (4 h after drug) it was 2.10 ± 0.15 cm; in data set [4] (8 h after drug), 1.90 ± 0.19 cm; in data set [4] (16 h after drug), 2.10 ± 0.211 cm; in data set [4] (20 h after drug) it was 2.00 ± 0.009 cm.
